Target: T1, Full length (FL) 3-Phosphoglycerate Dehydrogenase (PHGDH) (Homo sapiens, UniProt O43175)
T1 construct: Full length (FL) 3-Phosphoglycerate Dehydrogenase (PHGDH) Diaphorase coupled assay (500 uM NAD)
T1 sequence (O43175 1-533): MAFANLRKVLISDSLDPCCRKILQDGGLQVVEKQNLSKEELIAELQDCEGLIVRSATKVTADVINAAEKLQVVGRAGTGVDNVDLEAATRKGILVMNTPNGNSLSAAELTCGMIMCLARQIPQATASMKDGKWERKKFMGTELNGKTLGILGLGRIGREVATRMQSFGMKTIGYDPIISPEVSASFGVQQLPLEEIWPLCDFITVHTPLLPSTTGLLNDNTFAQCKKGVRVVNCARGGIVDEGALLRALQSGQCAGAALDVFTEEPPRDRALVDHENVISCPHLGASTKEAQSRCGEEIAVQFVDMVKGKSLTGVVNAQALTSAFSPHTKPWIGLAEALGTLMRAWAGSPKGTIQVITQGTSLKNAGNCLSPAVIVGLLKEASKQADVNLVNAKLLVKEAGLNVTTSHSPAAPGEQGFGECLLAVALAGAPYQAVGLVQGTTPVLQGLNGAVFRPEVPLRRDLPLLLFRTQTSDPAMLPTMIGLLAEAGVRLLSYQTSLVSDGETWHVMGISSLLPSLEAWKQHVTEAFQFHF
Test: Full length (FL) PHGDH Diaphorase coupled assay (500 uM NAD)
Assay type: biochemical
Conditions: full-length PHGDH 5 nM, 30° C. 60 minutes, resorufin fluorescence
Method: Full length (FL) 3-Phosphoglycerate Dehydrogenase (PHGDH) Diaphorase coupled assay (500 uM NAD)
PHGDH activity was determined by detecting the NADH produced during the reaction. Diaphorase was used to catalyze the oxidation of NADH with the concomitant reduction of resazurin to the fluorescent product resorufin. Resorufin fluorescence quantitatively reflected the production of NADH by the PHGDH reaction. To drive the forward reaction, two enzymes in the serine synthesis pathway subsequent to PHGDH, Phosphoserine aminotransferase (PSAT1) and phosphoserine phosphatase (PSPH) were also added to the reaction.
Briefly, serial dilution of compounds were incubated in a volume of 20 μL in 384 well plates with the assay mixture containing 5 nM PHGDH, 500 nM PSAT1, 500 nM PSPH, 500 μM NAD^+, 80 uM 3-phosphoglycerate, 1 mM glutamate, 57 uM Resazurin and 0.2 mg/ml Diaphorase in assay buffer containing 50 mM Trisethanoloamine (TEA) pH8.0, 10 mM MgCl2, 0.01% Tween-20 and 0.05% Bovine Serum Albumin (BSA). The plate was then incubated at 30° C. for 60 minutes and resorufin fluorescence was measured at emission wavelength 598 nm following excitation at 525 nm. The positive control consisted of the complete reaction mixture with 4% DMSO and was set to 0% inhibition.

Structure (SMILES) | IC50
CN1CC(COc2cc3c(cc(C(=O)NC4(c5ccc(C(=O)O)cc5)CCOC4)n3C)c(Cl)c2Cl)OC1=O (racemic) [I-93 e106] | 0.001 to 1 µM
Cn1c(C(=O)NC2(c3ccc(C(=O)O)cc3)CCOC2)cc2c(Cl)c(Cl)c(OCC3CCCO3)cc21 (racemic) [I-94 e98] | 0.001 to 1 µM
Cn1c(C(=O)NC2(c3ccc(C(=O)O)cc3)CCOC2)cc2c(Cl)cc(OCC3CNC(=O)O3)cc21 (racemic) [I-95 e96] | 1 to 5 µM
Cn1c(C(=O)NC2(c3ccc(C(=O)O)cc3)CCOC2)cc2c(Cl)c(C3CC3)ccc21 (racemic) [I-96 e36] | 0.001 to 1 µM
CN(C)CCOc1cc2c(cc(C(=O)NC3(c4ccc(C(=O)O)cc4)CCOC3)n2C)c(Cl)c1Cl (racemic) [I-97 e102] | 0.001 to 1 µM
Cc1cc(C2(NC(=O)c3cc4c(Cl)c(Cl)ccc4n3C)CCOC2)ccc1C(=O)O (racemic) [I-98 e155, (±)-4-[3-[(4,5-Dichloro-1-methyl-indole-2-carbonyl)amino]tetrahydro-furan-3-yl]-2-methyl-benzoic acid] | 0.001 to 1 µM
Cc1cc(C(=O)O)ccc1C1(NC(=O)c2cc3c(Cl)c(Cl)ccc3n2C)CCOC1 (racemic) [I-99 e89] | 0.001 to 1 µM
COCCOc1cc2c(cc(C(=O)NC3(c4ccc(C(=O)O)cc4)CCOC3)n2C)c(Cl)c1Cl (racemic) [I-100 e99] | 0.001 to 1 µM
Cn1c(C(=O)NC2(c3ccc(C(=O)O)c(C4CC4)c3)CCOC2)cc2c(Cl)c(Cl)ccc21 (racemic) [I-101 e157, (±)-2-cyclopropyl-4-[3-[(4,5-dichloro-1-methyl-indole-2-carbonyl)amino]-tetrahydrofuran-3-yl]benzoic acid] | 1 to 5 µM
CN1CC(COc2cc3c(cc(C(=O)NC4(c5ccc(C(=O)O)cc5)CCOC4)n3C)c(Cl)c2Cl)CC1=O (racemic) [I-102 e100] | 0.001 to 1 µM
CCOc1cc2c(cc(C(=O)NC3(c4ccc(C(=O)O)cc4)CCOC3)n2C)c(Cl)c1Cl (racemic) [I-104 e97] | 0.001 to 1 µM
CC(C(=O)O)c1ccc(C2(NC(=O)c3cc4c(Cl)c(Cl)ccc4n3C)CCOC2)cc1 (racemic) [I-105 e152, (±)-2-[4-[3-[(4,5-dichloro-1-methyl-indole-2-carbonyl)amino]tetrahydrofuran-3-yl]phenyl]propanoic acid] | 0.001 to 1 µM
Cn1c(C(=O)NC2(c3ccc(C(=O)O)cc3)CCOC2)cc2c(Cl)c(F)ccc21 (racemic) [I-106 e31] | 1 to 5 µM
Cn1c(C(=O)NC2(c3ccc(C(=O)O)cc3Cl)CCOC2)cc2c(Cl)c(Cl)ccc21 (racemic) [I-107 e24] | 0.001 to 1 µM
CC(=O)N1CCC(NC(=O)c2cc3c(Cl)c(Cl)ccc3n2C)(c2ccc(C(=O)O)cc2)C1 (racemic) [I-110 e20] | 0.001 to 1 µM
Cn1c(C(=O)NC2(c3ccc(C(=O)O)cc3)CCOC2)cc2c(Cl)c(Cl)c(OCC3CNC(=O)O3)cc21 (racemic) [I-111 e95] | 0.001 to 1 µM
Cn1c(C(=O)NC2(c3ccc(C(=O)O)cc3)CCOC2)cc2c(Cl)c3c(cc21)OCCO3 (racemic) [I-113 e35] | 0.001 to 1 µM
COc1cc(Cl)c2cc(C(=O)NC3(c4ccc(C(=O)O)cc4)CCOC3)n(C)c2c1 (racemic) [I-114 e34] | 1 to 5 µM
COc1cc2c(cc(C(=O)NC3(c4ccc(C(=O)O)cc4)CCOC3)n2C)c(Cl)c1Cl (racemic) [I-115 e33] | 0.001 to 1 µM
Cc1ccc2c(cc(C(=O)NC3(c4ccc(C(=O)O)cc4)CCOC3)n2C)c1Cl (racemic) [I-116 e32] | 0.001 to 1 µM
Cn1c(C(=O)NC2(c3ccc(C(=O)O)cc3)CCOC2)cc2c(Cl)cccc21 (racemic) [I-117 e30] | 1 to 5 µM
Cn1c(C(=O)NC2(c3ccc(C(=O)O)cc3F)CCOC2)cc2c(Cl)c(Cl)ccc21 (racemic) [I-118 e29] | 0.001 to 1 µM
Cn1c(C(=O)NC2(c3cccc(CC(=O)O)c3)CCOC2)cc2c(Cl)c(Cl)ccc21 (racemic) [I-119 e153, (±)-2-[3-[3-[(4,5-Dichloro-1-methyl-indole-2-carbonyl)amino]tetrahydrofuran-3-yl]phenyl]acetic acid] | 0.001 to 1 µM
Cn1c(C(=O)NC2(c3ccc(C(=O)O)c(C#N)c3)CCOC2)cc2c(Cl)c(Cl)ccc21 (racemic) [I-120 e154, (±)-2-Cyano-4-(3-(4,5-dichloro-1-methyl-1H-indole-2-carboxamido)tetrahydrofuran-3-yl)benzoic acid] | 0.001 to 1 µM
Cn1c(C(=O)NC2(c3ccc(C(=O)O)cc3)CCN(c3ccccc3)C2)cc2c(Cl)c(Cl)ccc21 (racemic) [I-121 e21] | 1 to 5 µM

Structure (SMILES) | IC50
COc1ccc2c(cc(C(=O)NC3(c4ccc(C(=O)O)cc4)CCOC3)n2C)c1Cl (racemic) [I-122 e26] | 0.001 to 1 µM
Cn1c(C(=O)NC2(c3ccc(C(=O)O)cc3)CCCOC2)cc2c(Cl)c(Cl)ccc21 (racemic) [I-123 e23] | 0.001 to 1 µM
Cn1c(C(=O)NC2(c3ccc(C(=O)O)cc3)CCN(CC(F)(F)F)C2)cc2c(Cl)c(Cl)ccc21 (racemic) [I-125 e19] | 1 to 5 µM
CCN1CCC(NC(=O)c2cc3c(Cl)c(Cl)ccc3n2C)(c2ccc(C(=O)O)cc2)C1 (racemic) [I-126 e18] | 5 to 10 µM
COc1ccc2c(cc(C(=O)NC3(c4ccc(C(C(=O)O)C5CCCCC5)cc4)COC3)n2C)c1Cl (racemic) [I-156 e119] | 0.001 to 1 µM
COc1ccc2c(cc(C(=O)NC3(c4ccc(C(C(=O)O)C5CCNCC5)cc4)COC3)n2C)c1Cl (racemic) [I-159 e121] | 0.001 to 1 µM
COc1ccc2c(cc(C(=O)NC3(c4ccc(C(C(=O)O)C5CCC(O)CC5)cc4)COC3)n2C)c1Cl (racemic) [I-160 e138, (±)-2-[4-[3-[(4-Chloro-5-methoxy-1-methyl-indole-2-carbonyl)amino]oxetan-3-yl]phenyl]-2-(4-hydroxycyclohexyl)acetic acid] | 0.001 to 1 µM
COc1cc2c(cc(C(=O)NC3(c4ccc(C(C(=O)O)C5CC5)cc4)CCOC3)n2C)c(Cl)c1Cl (racemic) [I-163 e163, (±)-2-Cyclopropyl-2-(4-(3-(4,5-dichloro-6-methoxy-1-methyl-1H-indole-2-carboxamido)tetrahydrofuran-3-yl)phenyl)acetic acid] | 0.001 to 1 µM
C[C@@H](C(=O)O)c1ccc(C2(NC(=O)c3cc4c(Cl)c(Cl)ccc4n3C)COC2)cc1 (single isomer, unassigned) [I-34 or I-35 e161 peak 2] | 0.001 to 1 µM
C[C@H](C(=O)O)c1ccc(C2(NC(=O)c3cc4c(Cl)c(Cl)ccc4n3C)COC2)cc1 (single isomer, unassigned) [I-35 or I-34 e160 peak 1] | 0.001 to 1 µM
Cn1c(C(=O)N[C@@]2(c3ccc(CC(=O)O)cc3)CCOC2)cc2c(Cl)c(Cl)ccc21 (single isomer, unassigned) [I-108 or I-109 e151 peak 2] | 0.001 to 1 µM
Cn1c(C(=O)N[C@]2(c3ccc(CC(=O)O)cc3)CCOC2)cc2c(Cl)c(Cl)ccc21 (single isomer, unassigned) [I-109 or I-108 e150 peak 1] | 0.001 to 1 µM
COc1ccc2c(cc(C(=O)NC3(c4ccc(C(CCCO)C(=O)O)cc4)COC3)n2C)c1Cl (centres unmarked) [I-11 e72] | 0.001 to 1 µM
COc1ccc2c(cc(C(=O)NC3(c4ccc(C(C)(C)C(=O)O)cc4)COC3)n2C)c1Cl [I-27 e110] | 0.001 to 1 µM
Cn1c(C(=O)NC2(c3ccc(C4(C(=O)O)CC4)cc3)COC2)cc2c(Cl)c(Cl)ccc21 [I-28 e108] | 0.001 to 1 µM
COc1ccc2c(cc(C(=O)NC3(c4ccc(CC(=O)O)cc4Cl)COC3)n2C)c1Cl [I-32 e64] | 0.001 to 1 µM
CC(C(=O)O)c1ccc(C2(NC(=O)c3cc4c(Cl)c(Cl)ccc4n3C)COC2)c(Cl)c1 (centres unmarked) [I-33 e62] | 0.001 to 1 µM
Cn1c(C(=O)NC2(c3ccc(C(C)(C)C(=O)O)cc3)COC2)cc2c(Cl)c(Cl)ccc21 [I-36 e107] | 0.001 to 1 µM
Cn1c(C(=O)NC2(c3ccc(C(C)(C)C(=O)O)cc3F)COC2)cc2c(Cl)c(Cl)ccc21 [I-37 e109] | 0.001 to 1 µM
Cn1c(C(=O)NC2(c3ccc(Cc4nnn[nH]4)cc3)COC2)cc2c(Cl)c(Cl)ccc21 [I-41 e92] | 0.001 to 1 µM
COc1cc2c(cc(C(=O)NC3(c4ccc(C(=O)O)cc4Cl)COC3)n2C)c(Cl)c1F [I-44 e76] | 0.001 to 1 µM
COc1cc2c(cc(C(=O)NC3(c4ccc(C(=O)O)cc4C)COC3)n2C)c(Cl)c1C [I-45 e74] | 0.001 to 1 µM
COc1cc2c(cc(C(=O)NC3(c4ccc(C(=O)O)cc4Cl)COC3)n2C)c(Cl)c1C [I-46 e73] | 0.001 to 1 µM
COc1cc2c(cc(C(=O)NC3(c4ccc(C(=O)O)cc4C)COC3)n2C)c(Cl)c1F [I-47 e77] | 0.001 to 1 µM
COc1cc2c(cc(C(=O)NC3(c4ccc(C(C)C(=O)O)cc4)COC3)n2C)c(Cl)c1Cl (centres unmarked) [I-48 e71] | 0.001 to 1 µM
